Changes are numbered by the printed parent chain. Where two headings read alike, the source gives them in different places.
How the values were obtained:
AR (wild-type) [1] = molecular target: T1, AR (wild-type) (Homo sapiens, UniProt P10275); assay: Reporter assay system using Cos7 cell, luciferase under androgen responsive promoter of two tandem PSA promoter regions; assay type: cell-based; settings: 100 nM compound, 24 hr, luciferase activity with 1 μM 5α-dihydrotestosterone as 100
T1 construct: expressed in transfected cells; host or cells: Cos-7
T1 sequence (P10275 1-920): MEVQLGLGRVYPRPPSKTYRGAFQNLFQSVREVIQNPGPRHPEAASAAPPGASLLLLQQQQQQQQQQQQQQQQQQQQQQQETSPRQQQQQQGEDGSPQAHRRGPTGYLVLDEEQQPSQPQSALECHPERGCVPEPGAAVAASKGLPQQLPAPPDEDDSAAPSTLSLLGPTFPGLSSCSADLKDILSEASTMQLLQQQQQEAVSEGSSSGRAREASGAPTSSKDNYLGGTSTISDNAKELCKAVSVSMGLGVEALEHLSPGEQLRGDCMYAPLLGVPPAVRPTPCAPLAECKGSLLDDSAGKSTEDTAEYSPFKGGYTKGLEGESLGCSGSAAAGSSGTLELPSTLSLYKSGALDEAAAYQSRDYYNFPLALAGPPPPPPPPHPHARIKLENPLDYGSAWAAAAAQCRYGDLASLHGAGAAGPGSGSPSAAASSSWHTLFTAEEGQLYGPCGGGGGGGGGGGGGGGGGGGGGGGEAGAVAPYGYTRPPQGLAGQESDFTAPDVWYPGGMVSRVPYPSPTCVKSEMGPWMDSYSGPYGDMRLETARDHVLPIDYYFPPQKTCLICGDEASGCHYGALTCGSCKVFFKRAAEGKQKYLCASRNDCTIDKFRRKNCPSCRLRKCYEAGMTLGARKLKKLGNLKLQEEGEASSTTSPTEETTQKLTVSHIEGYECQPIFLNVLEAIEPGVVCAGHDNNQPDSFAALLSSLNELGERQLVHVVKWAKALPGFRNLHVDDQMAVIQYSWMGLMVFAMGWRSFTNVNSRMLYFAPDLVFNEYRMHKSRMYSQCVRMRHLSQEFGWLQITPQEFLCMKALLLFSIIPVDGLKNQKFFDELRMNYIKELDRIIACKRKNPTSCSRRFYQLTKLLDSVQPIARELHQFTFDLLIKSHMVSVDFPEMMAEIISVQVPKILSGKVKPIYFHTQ
Protocol: Cos-7 (5,000,000 cells) were sown in a flask (150 cm^2), and cultured in a culture medium (DMEM medium containing 10% Dextran Charcoal (DCC)-Fetal Bovine Serum (FBS) and 2 mM glutamine) for 24 hr. A vector DNA containing AR gene, and a vector DNA prepared by binging luciferase gene at the downstream of an androgen responsive promoter prepared by ligating two PSA promoter regions in tandem were co-transfected by the liposome method. After culture for 2 hr, the cells were harvested, 10,000 cells were plated on a 96 well plate and cultured for 3 hr, after which 1 μM of 5α-dihydrotestosterone or 100 nM of a compound was added thereto. After culture for 24 hr, luciferase activity was determined. The induction rate by the compound was determined with the luciferase activity induced by addition of 1 μM of 5α-dihydrotestosterone as 100.

[2] = test system: human prostate cancer cell line LNCaP-FGC; assay: PSA production test in human prostate cancer cell line; assay type: cell-based; settings: 3 days, vehicle as 0, 350 nM testosterone as 100, test compound final concentration 0.1-1000 nM (concentration not given)
Protocol: The human prostate cancer cell line LNCaP-FGC was plated on a 96 well plate at 5,000 cells/100 μL/well. The next day, a test compound (final concentration 0.1-1000 nM), or a vehicle (control) or testosterone (final concentration 0.35-350 nM) was added thereto, and the culture supernatant was recovered 3 days after the drug addition. The concentration of PSA (Prostate Specific Antigen) produced in an androgen-dependent manner in the culture supernatant was measured by ELISA. The PSA production promotion rate by the test compound was calculated with vehicle addition group as 0 and 350 nM testosterone addition group as 100.

[3] = molecular target: T2, AR having LNCaP-type mutation (Homo sapiens, UniProt P10275, T878A); assay: AR binding inhibitory test (LNCaP-type), radiolabeled mibolerone; settings: 100 nM compound, 3 nM radiolabeled mibolerone, 4° C. 3 hr
T2 sequence (P10275 1-920 T878A): T1 sequence (P10275 1-920) with T878A
Protocol: (§1) To a solution containing a wild-type androgen receptor (AR) or AR having LNCaP-type mutation were added 3 nM radiolabeled mibolerone and 100 nM compound. After the solution was incubated at 4° C. for 3 hr, B (Bound)/F (Free) separation was performed by the dextran/charcoal method. The label count of B was measured, and the inhibitory rate of the compound was calculated.

[4] = molecular target: T3, wild-type androgen receptor (AR) (Homo sapiens, UniProt P10275); assay: AR binding inhibitory test (wild-type), radiolabeled mibolerone; settings: 100 nM compound, 3 nM radiolabeled mibolerone, 4° C. 3 hr, read-out: Inhibitory rate (%) at 100 nM wild-type
T3 sequence (P10275 1-920): T1 sequence (P10275 1-920)
Protocol: as §1

AR (wild-type) [5] = molecular target: T1, AR (wild-type); assay: Reporter assay system using Cos7 cell, luciferase under MMTV-derived androgen responsive promoter; assay type: cell-based; settings: 100 nM compound, 24 hr, luciferase activity with 1 μM 5α-dihydrotestosterone as 100
Protocol: Cos-7 (5,000,000 cells) were sown in a flask (150 cm^2), and cultured in a culture medium (DMEM medium containing 10% Dextran Charcoal (DCC)-Fetal Bovine Serum (FBS) and 2 mM glutamine) for 24 hr. A vector DNA containing AR gene, and a vector DNA prepared by binging luciferase gene at the downstream of an MMTV (Mouse Mammary Tumor Virus)-derived androgen responsive promoter were co-transfected by the liposome method. After culture for 2 hr, the cells were harvested, 10,000 cells were plated on a 96 well plate and cultured for 3 hr, after which 1 μM of 5α-dihydrotestosterone or 100 nM of a compound was added. After culture for 24 hr, luciferase activity was determined. The induction rate by the compound was determined with the luciferase activity induced by addition of 1 μM of 5α-dihydrotestosterone as 100.

[6] = Table 3, read-out: Inhibitory rate (%) at 100 nM LNCaP-type
[7] = Table 6, read-out: Inhibitory rate (%) at 100 nM LNcap-type

SMILES | Induction rate (%) at 100 nM wild-type (AR (wild-type) [1]) | PSA production promotion rate (%) [2] | inhibition at 0.1 µM [3, 6] | inhibition at 0.1 µM ([4]; Table 3) | inhibition at 0.1 µM [3, 7] | Induction rate (%) at 100 nM wild-type (AR (wild-type) [5]) | inhibition at 0.1 µM ([4]; Table 6)
Cc1c(N2CC[C@H](C(C)(C)O)[C@@H]2C)ccc(C#N)c1Cl [Compound 2, 2-chloro-4-[(2S,3S)-3-(1-hydroxy-1-methylethyl)-2-methylpyrrolidin-1-yl]-3-methylbenzonitrile] | 71% | 103% | 99% | 99% |  |  | 
C[C@H]1[C@@H](C(C)(C)O)CCN1c1ccc(C#N)c(Cl)c1 [Compound 3, 2-chloro-4-[(2S,3S)-3-(1-hydroxy-1-methylethyl)-2-methylpyrrolidin-1-yl]benzonitrile] | 57% | 81% | 99% | 98% |  |  | 
C[C@H]1[C@@H](C(C)(C)O)CCN1c1ccc(C#N)c(Cl)c1F [Compound 53, 2-chloro-3-fluoro-4-[(2S,3S)-3-(1-hydroxy-1-methylethyl)-2-methylpyrrolidin-1-yl]benzonitrile] |  |  |  |  | 98% | 33% | 98%
C[C@H]1[C@@H](C(C)(C)O)CCN1c1ccc(C#N)c(Br)c1 [Compound 71, 2-bromo-4-[(2S,3S)-3-(1-hydroxy-1-methylethyl)-2-methylpyrrolidin-1-yl]benzonitrile] |  |  |  |  | 97% | 31% | 99%
C[C@H]1[C@@H](C(C)(C)O)CCN1c1ccc(C#N)c(Cl)c1Cl [Compound 75, 2,3-dichloro-4-[(2S,3S)-3-(1-hydroxy-1-methylethyl)-2-methylpyrrolidin-1-yl]benzonitrile] |  |  |  |  | 99% | 60% | 99%
C[C@H]1[C@@H](C(C)(C)O)CCN1c1ccc(C#N)cc1C(F)(F)F [Compound 80, 4-[(2S,3S)-3-(1-hydroxy-1-methylethyl)-2-methylpyrrolidin-1-yl]-3-(trifluoromethyl)benzonitrile] |  |  |  |  | 95% | 22% | 97%
CC(C)[C@H]1[C@@H](O)CCN1c1ccc(C#N)c(C(F)(F)F)c1 [Compound 82, 4-[(2S,3S)-3-hydroxy-2-isopropylpyrrolidin-1-yl]-2-(trifluoromethyl)benzonitrile] |  |  |  |  | 97% | 90% | 98%

Source: patent publication US8592452B2, “Cyclic amine compound” (Takeda Pharmaceutical Company Limited, priority 2005, dated 2013)
